Results as given in ChEMBL document CHEMBL3045468, “I2 catalyzed FriedelCrafts alkylation reaction of substituted anilines with ninhydrin: formation of novel products and their antimicrobial evaluation” (2013).
≈ marks a conversion by molar mass, not a printed value. Calls of active or inactive are those of the source. The rule behind the calls is not given here.

What was measured:
Aspergillus niger [1] = experiment: Antifungal activity against Aspergillus niger clinical isolate assessed as growth inhibition at 1 mg/ml after 96 hr by NCCLS agar diffusion method; format: functional; details: read-out: DIZ
Staphylococcus aureus [2] = experiment: Antibacterial activity against Staphylococcus aureus 29737 clinical isolate assessed as growth inhibition at 1 mg/ml after 24 hr by NCCLS agar diffusion method; format: functional
Bacillus pumilus = experiment: Antibacterial activity against Bacillus pumilus 11778 clinical isolate assessed as growth inhibition at 1 mg/ml after 24 hr by NCCLS agar diffusion method; format: functional; details: for zone of inhibition at 1000 µg/mL: Bacillus pumilus, 11778, 24 h, read-out: DIZ
Shigella dysenteriae [3] = experiment: Antibacterial activity against Shigella dysenteriae 15 clinical isolate assessed as growth inhibition at 1 mg/ml after 24 hr by NCCLS agar diffusion method; format: functional; details: for zone of inhibition at 1000 µg/mL: Shigella dysenteriae, 15, 24 h, read-out: DIZ
Escherichia coli [4] = experiment: Antibacterial activity against Escherichia coli 319 clinical isolate assessed as growth inhibition at 1 mg/ml after 24 hr by NCCLS agar diffusion method; format: functional; details: for zone of inhibition at 1000 µg/mL: Escherichia coli, 319, 24 h, read-out: DIZ
Candida albicans [5] = experiment: Antifungal activity against Candida albicans clinical isolate assessed as growth inhibition after 96 hr by agar dilution method; format: functional
Klebsiella pneumoniae [6] = experiment: Antibacterial activity against Klebsiella pneumoniae J/I/4 clinical isolate assessed as growth inhibition at 1 mg/ml after 24 hr by NCCLS agar diffusion method; format: functional; details: for zone of inhibition at 1000 µg/mL: J/I/4, 24 h, read-out: DIZ
Candida tropicalis [7] = experiment: Antifungal activity against Candida tropicalis clinical isolate assessed as growth inhibition at 1 mg/ml after 96 hr by NCCLS agar diffusion method; format: functional; details: read-out: DIZ
Candida tropicalis [8] = experiment: Antifungal activity against Candida tropicalis clinical isolate assessed as growth inhibition after 96 hr by agar dilution method; format: functional
Pseudomonas aeruginosa [9] = experiment: Antibacterial activity against Pseudomonas aeruginosa 71 clinical isolate assessed as growth inhibition at 1 mg/ml after 24 hr by NCCLS agar diffusion method; format: functional
Escherichia coli [10] = experiment: Antibacterial activity against Escherichia coli 319 clinical isolate assessed as morphological changes at MIC after 24 hr by scanning electron microscopic analysis; format: functional, organism-based
Aspergillus niger [11] = experiment: Antifungal activity against Aspergillus niger clinical isolate assessed as growth inhibition after 96 hr by agar dilution method; format: functional
Escherichia coli [12] = experiment: Bactericidal activity against Escherichia coli 319 clinical isolate assessed as reduction of viable CFU count at MIC measured up to 48 hr relative to untreated control; format: functional, organism-based
Vibrio cholerae [13] = experiment: Bactericidal activity against Vibrio cholerae 759 clinical isolate assessed as reduction of viable CFU count at MIC measured up to 48 hr relative to untreated control; format: functional, organism-based
Vibrio cholerae [14] = experiment: Antibacterial activity against Vibrio cholerae 759 clinical isolate assessed as growth inhibition at 1 mg/ml after 24 hr by NCCLS agar diffusion method; format: functional; details: for zone of inhibition at 1000 µg/mL: Vibrio cholerae, 759, 24 h, read-out: DIZ
Candida albicans [15] = experiment: Antifungal activity against Candida albicans clinical isolate assessed as growth inhibition at 1 mg/ml after 96 hr by NCCLS agar diffusion method; format: functional; details: read-out: DIZ
Micrococcus luteus = experiment: Antibacterial activity against Micrococcus luteus ATCC 9341 clinical isolate assessed as growth inhibition at 1 mg/ml after 24 hr by NCCLS agar diffusion method; format: functional; details: for zone of inhibition at 1000 µg/mL: ATCC 9341, 24 h, read-out: DIZ
Shigella dysenteriae [16] = experiment: Antibacterial activity against Shigella dysenteriae 15 clinical isolate assessed as growth inhibition after 24 hr by agar dilution method; format: functional
Klebsiella pneumoniae [17] = experiment: Antibacterial activity against Klebsiella pneumoniae J/I/4 clinical isolate assessed as growth inhibition after 24 hr by agar dilution method; format: functional
Escherichia coli [18] = experiment: Antibacterial activity against Escherichia coli 319 clinical isolate assessed as growth inhibition after 24 hr by agar dilution method; format: functional
Staphylococcus aureus [19] = experiment: Antibacterial activity against Staphylococcus aureus 29737 clinical isolate assessed as growth inhibition after 24 hr by agar dilution method; format: functional
Vibrio cholerae [20] = experiment: Antibacterial activity against Vibrio cholerae 759 clinical isolate assessed as growth inhibition after 24 hr by agar dilution method; format: functional
Pseudomonas aeruginosa [21] = experiment: Antibacterial activity against Pseudomonas aeruginosa 71 clinical isolate assessed as growth inhibition after 24 hr by agar dilution method; format: functional
Cryptococcus neoformans [22] = experiment: Antifungal activity against Cryptococcus neoformans clinical isolate assessed as growth inhibition after 96 hr by agar dilution method; format: functional
Cryptococcus neoformans [23] = experiment: Antifungal activity against Cryptococcus neoformans clinical isolate assessed as growth inhibition at 1 mg/ml after 96 hr by NCCLS agar diffusion method; format: functional; details: read-out: DIZ

Compound | zone of inhibition at 1000 µg/mL (Aspergillus niger [1]) [mm] | growth inhibition (GI) (Staphylococcus aureus [2]) | zone of inhibition at 1000 µg/mL (Bacillus pumilus) [mm] | zone of inhibition at 1000 µg/mL (Shigella dysenteriae [3]) [mm] | zone of inhibition at 1000 µg/mL (Escherichia coli [4]) [mm] | MIC (Candida albicans [5]) [µg/mL] | growth inhibition (GI) (Klebsiella pneumoniae [6]) | zone of inhibition at 1000 µg/mL (Candida tropicalis [7]) [mm] | MIC (Candida tropicalis [8]) [µg/mL] | growth inhibition (GI) (Pseudomonas aeruginosa [9]) | MIC (Aspergillus niger [11]) [µg/mL] | zone of inhibition at 1000 µg/mL (Vibrio cholerae [14]) [mm] | zone of inhibition at 1000 µg/mL (Candida albicans [15]) [mm] | growth inhibition (GI) (Micrococcus luteus) | growth inhibition (GI) (Shigella dysenteriae [3]) | growth inhibition (GI) (Escherichia coli [4]) | growth inhibition (GI) (Vibrio cholerae [14]) | zone of inhibition at 1000 µg/mL (Klebsiella pneumoniae [6]) [mm] | growth inhibition (GI) (Bacillus pumilus) | other results
Cc1cc(C2(c3ccc(N)c(C)c3)C(=O)c3ccccc3C2=O)ccc1N | 7.6 | inactive | 7 | 7 | 7 | 1000 (≈ 2.81 mM) | inactive | 8 | 2000 (≈ 5.61 mM) | inactive | 1000 (≈ 2.81 mM) | 8 | 10 | inactive | – | – | – | – | – | Activity (Escherichia coli [10]): Active; Activity (Escherichia coli [12]): Active; Activity (Vibrio cholerae [13]): Active
Cc1cc(C2(c3cc(C)c(N)c(C)c3)C(=O)c3ccccc3C2=O)cc(C)c1N | – | inactive | 9 | – | – | – | inactive | – | – | inactive | – | – | – | inactive | inactive | inactive | inactive | – | – | –
Cc1cc(C2(c3cc(C)c(N)cc3F)C(=O)c3ccccc3C2=O)c(F)cc1N | – | inactive | 7 | – | 7 | – | – | – | – | inactive | – | – | – | inactive | inactive | – | inactive | 7 | – | –
Nc1ccc(C2(c3ccc(N)cc3)C(=O)c3ccccc3C2=O)cc1 | 10 | inactive | 8 | 7 | 6 | 1000 (≈ 3.05 mM) | – | 8.2 | 1000 (≈ 3.05 mM) | inactive | 1000 (≈ 3.05 mM) | – | 9 | inactive | – | – | inactive | 7 | – | –
COc1cc(N)ccc1C1(O)C(=O)c2ccccc2C1=O | – | – | – | – | – | – | inactive | – | – | inactive | – | – | – | – | inactive | inactive | inactive | – | inactive | zone of inhibition at 1000 µg/mL (Staphylococcus aureus [2]; Staphylococcus aureus, 29737, 24 h, read-out: DIZ): 7 mm; zone of inhibition at 1000 µg/mL (Micrococcus luteus): 8 mm
GENTAMICIN | – | – | – | – | – | – | – | – | – | – | – | – | – | – | – | – | – | – | – | MIC (Shigella dysenteriae [16]): 2000 µg/mL; MIC (Klebsiella pneumoniae [17]): 250 µg/mL; MIC (Escherichia coli [18]): 500 µg/mL; MIC (Staphylococcus aureus [19]): 1000 µg/mL; MIC (Vibrio cholerae [20]): 2000 µg/mL; MIC (Pseudomonas aeruginosa [21]): 4000 µg/mL
COc1cc(C2(Nc3cc(Cl)ccc3OC)C(=O)c3ccccc3C2=O)c(Cl)cc1N | – | inactive | – | – | – | – | inactive | – | – | inactive | – | 8 | – | – | inactive | inactive | – | – | inactive | MIC (Vibrio cholerae [20]; Vibrio cholerae, 759, 24 h): 32000 µg/mL (≈ 70 mM); Activity (Escherichia coli [12]): Active; Activity (Vibrio cholerae [13]): Active; zone of inhibition at 1000 µg/mL (Micrococcus luteus): 9 mm
Nc1ccc(C2(c3ccc(N)c(Br)c3)C(=O)c3ccccc3C2=O)cc1Br | 12 | inactive | 8 | – | 8 | 2500 (≈ 5.14 mM) | – | 8 | 2000 (≈ 4.11 mM) | inactive | 1000 (≈ 2.06 mM) | 9 | 10 | inactive | inactive | – | – | 6 | – | MIC (Cryptococcus neoformans [22]): 1500 µg/mL (≈ 3.09 mM); zone of inhibition at 1000 µg/mL (Cryptococcus neoformans [23]): 8 mm
Cc1ccc(NC2(c3cc(C)c(C)cc3N)C(=O)c3ccccc3C2=O)cc1C | – | inactive | – | – | 7 | – | inactive | – | – | inactive | – | – | – | inactive | inactive | – | inactive | – | inactive | –
Nc1ccc(C2(c3ccc(N)c(Cl)c3)C(=O)c3ccccc3C2=O)cc1Cl | – | inactive | – | 6 | 8 | – | – | – | – | inactive | – | – | – | inactive | – | – | inactive | 8 | inactive | MIC (Shigella dysenteriae [16]; Shigella dysenteriae, 15, 24 h): 32000 µg/mL (≈ 80.6 mM)
